The record followed here is patent US12128035B2, “Activating pyruvate kinase R” (Novo Nordisk Health Care AG, priority 2021, dated 2024).

Data set [1] deals with T1, PKR in mouse red blood cells (Mus musculus, UniProt P53657).
T1 construct: endogenous in cells; host or cells: mouse RBCs freshly isolated from whole blood
Nature of the data set: Cell assay: PKR activation in mouse RBCs. The data set is classed as cell-based. From the text:
Mouse RBCs were isolated fresh from whole blood using a Ficoll gradient and assayed with methods similar to those used in the human RBCs assays.

Data set [2] has as its system Red blood cells from SCD patients. Nature of the data set: Ex vivo Hgb oxygen equilibrium curves in SCD RBCs. The following applies: 10 μM. The data set is classed as cell-based, human. How it is done:
Red blood cells from SCD patients were used to evaluate the effects of Compound 1 on Hgb affinity for oxygen (i.e., oxygen affinity) and sickling under hypoxic conditions. Cells were incubated at 37° C. for 1, 2, and 3 hr with HEPES buffered saline (HBS) (untreated), HBS+dimethyl sulfoxide (DMSO) (vehicle), or 10 μM Compound 1. To assess oxygen dissociation, Hgb oxygen equilibrium curves were collected during deoxygenation.

In data set [3] the test system is estradiol and testosterone levels. Nature of the data set: Circulating estradiol and testosterone in healthy subjects, 14 days. The data set is classed as in vivo, human. The note with it: up to 14 days, 100-300 mg BID or 400 mg QD. As to the method: Effects on circulating levels of estradiol and testosterone in male and female healthy subjects receiving Compound 1 or placebo for a treatment period of 14 days were evaluated. Compound 1 was administered twice daily (BID) at dose levels of 100 mg, 200 mg, and 300 mg, and once daily (QD) at a dose level of 400 mg. Each dosing cohort was comprised of 9 subjects treated with Compound 1 and 3 subjects treated with placebo. Testosterone and estradiol levels were assessed prior to dosing (baseline), and then on days 8, 14 and 17.

For data set [4], the system named is H295R adreno-cortical carcinoma cell line. As to the kind of experiment: Cell viability (MTT Kit). The data set is classed as cell-based. How it is done:
To assess potential effects on steroidogenesis, Compound 1 was screened for steroid modulation in vitro using the H295R adreno-cortical carcinoma cell line (at 200 to 0.0002 μM) and in an assay to monitor cell viability (MTT Kit). Compound 1 indicated steroid modulation potential (% over vehicle) only at 200 μM, the top concentration tested, with 100% cellular viability at concentrations ≤20 μM (90% viability at 200 μM).

SMILES strings stand for the structures. Several values for one entry are separate records, joined by “and”; a condition that tells them apart may be missing. Equal values may be shown once. Entries after “also recorded” stand apart in the source; their conditions may differ.

T1 sequence (P53657 whole entry): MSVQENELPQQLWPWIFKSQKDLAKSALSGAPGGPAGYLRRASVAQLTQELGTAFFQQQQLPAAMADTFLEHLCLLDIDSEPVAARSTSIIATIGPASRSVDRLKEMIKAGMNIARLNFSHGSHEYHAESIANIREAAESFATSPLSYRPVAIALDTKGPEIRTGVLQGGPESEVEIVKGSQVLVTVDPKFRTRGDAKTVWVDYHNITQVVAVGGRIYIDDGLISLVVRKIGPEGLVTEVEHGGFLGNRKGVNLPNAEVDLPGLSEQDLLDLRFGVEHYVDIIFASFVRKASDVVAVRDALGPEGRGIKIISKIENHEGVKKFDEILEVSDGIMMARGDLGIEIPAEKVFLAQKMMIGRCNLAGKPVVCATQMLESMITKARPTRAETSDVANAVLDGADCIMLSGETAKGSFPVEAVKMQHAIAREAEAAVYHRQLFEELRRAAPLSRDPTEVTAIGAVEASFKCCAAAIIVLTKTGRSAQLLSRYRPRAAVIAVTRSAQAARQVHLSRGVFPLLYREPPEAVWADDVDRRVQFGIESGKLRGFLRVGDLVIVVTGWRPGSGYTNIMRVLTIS

On to `O=C([C@H](CO)c1ccccc1)N1CC2=C(C1)CN(S(=O)(=O)c1cnc3c(c1)OCCO3)C2` (single isomer, unassigned) [Compound 1], for which the “Max − Min (%), Mean” value in data set [1] (mean of replicates) is below 100%. The “Max − Min (%)” value in data set [1] (single replicates) is <50% and <100%. Also, in data set [2] (2 hr), the “Hgb saturation higher compared to DMSO-treated cells” value is listed as “approximately 10%”. Also, the p50 in data set [2] (after 1 hr, shifted from 29 mmHg) was found to be 25 mmHg. The “Hemoglobin Saturation” value in data set [2] (incubation 1 hr, normalized to 1.00 (DMSO 1.18)) amounted to 1.05; in data set [2] (incubation 2 hr, normalized to 1.00 (DMSO 1.18)), 1.00; in data set [2] (incubation 3 hr, normalized to 1.00 (DMSO 1.30)) it was 1.02. In data set [3], the “testosterone and estradiol levels” value is “no effect on estradiol and testosterone levels; also recorded: No effect on testosterone or estradiol levels; also recorded: no statistically significant changes and no clinically meaningful trends”. In addition, the cellular viability in data set [4] (200 μM) came out at 90%; in data set [4] (concentrations ≤20 μM), 100%.
